# Source: patent US5670154A, “Reducing tyrosinase activity” (priority 1994, dated 1997)
# Tested on: tyrosinase
# Assay: Tyrosinase inhibition, absorbance of Dopa-Chroma at 475 nm
# Format: biochemical, mushroom
# Details: for Inhibition (%): Inhibitory agent 0.15mg/ml, tyrosine substrate, 30 minutes at 37° C.; for Relative strength of tyrosinase inhibition among the catechins: comparison of the catechins of Table 1
# Method: The level of tyrosinase, inhibition was measured according to the following method.
# 50 μl of the enzyme (8300 U/ml) (Source:mushroom, SIGMA) was added to a mixture of 250 μl of tyrosine substrate solution (0.3 mg/ml), 250 μl of the inhibiting (polyphenol) solution (0.5 mg/ml), 250 μl of Macllvain buffer solution and left for 30 minutes at 37° C. After this time the absorbance of the red colored Dopa-Chroma formed was measured at 475 nm.
# Inhibition(%)=[(A-B)-(C-D)]/(A-B)×100
# Where A, B, C, D represent the absorbance of solutions A, B, C and D as defined below, measured at 475 nm respectively.
# A is the tyrosine+enzyme solution
# B is the tyrosine solution
# C is the tyrosine+enzyme+polyphenol solution
# D is the tyrosine+polyphenol solution
smiles,measurement,value
"O=C(O[C@@H]1Cc2c(O)cc(O)cc2O[C@@H]1c1ccc(O)c(O)c1)c1cc(O)c(O)c(O)c1 [Epicatechin gallate, (-)Epicatechin gallate]",Inhibition (%),95.1%
same,Relative strength of tyrosinase inhibition among the catechins,strongest inhibitors of tyrosinase
"Oc1cc(O)c2c(c1)O[C@H](c1ccc(O)c(O)c1)[C@H](O)C2 [Epicatechin, (-)Epicatechin]",Inhibition (%),11.9%
"O=C(O[C@@H]1Cc2c(O)cc(O)cc2O[C@@H]1c1cc(O)c(O)c(O)c1)c1cc(O)c(O)c(O)c1 [Epigallocatechin gallate, (-)Epigallocatechin gallate]",Inhibition (%),79.5%
same,Relative strength of tyrosinase inhibition among the catechins,strongest inhibitors of tyrosinase
"Oc1cc(O)c2c(c1)O[C@H](c1cc(O)c(O)c(O)c1)[C@H](O)C2 [Epigallocatechin, (-)Epigallocatechin]",Inhibition (%),17.5%
